Laboratory results as given in patent publication US20250215006A1, “TRICYCLIC COMPOUNDS AS INHIBITORS OF WRN” (Incyte Corporation, priority 2023, published 2025).

Assays:
WRN [1] = target: T1, WRN (Homo sapiens, UniProt Q14191); assay: WRN Helicase activity assay (fluorescence DNA unwinding); format: biochemical; settings: 1-hr pre-incubation with enzyme; 100 μM ATP, 25 nM forked dsDNA, 1 nM WRN; geometric mean of at least 2 replicates
T1 construct: A His-tagged construct of WRN (AA S2-S1235) was produced and used for the ATPase assay; His; made in house; host or cells: Sf9 insect cells (baculovirus, pFastBac1)
Procedure: Compounds of the examples were tested for WRN helicase activity. DNA encoding the target protein, 6×HIS-TEV-WRN-517-945, was produced, cloned and transfected as detailed in Example D. To determine the inhibitory properties of the compounds, a 384 wells plate-based Helicase assay was set up to measure the extent of DNA unwinding (Helicase) activity of WRN. The WRN Helicase assay was designed to measure increase in fluorescence signal using a fluorescence based, donor-quencher paired forked dsDNA oligomer substrate (custom synthesis from Sigma-Aldrich) prepared by annealing equal amounts of oligo GPat-1 ([BHQ2][…]) and oligo GPat-2 ([…][TAM]). Continuous measurement of fluorescent signal was used to optimize the buffer conditions, concentration of enzyme (WRN), concentration of substrates (ATP & dsDNA), and the linearity of the Helicase reaction. All solutions were prepared in the following assay buffer: 50 mM Tris-HCl, pH-7.5, 2 mM MgCl2, 50 mM NaCl, 1 mM EGTA, 0.01% P-20, 0.05% BSA, and 2 mM DTT prepared with nuclease free water.
A serial dilution (1:3 scheme) of the compounds was prepared in neat DMSO and 100 nL of the compounds was dispensed in the Greiner black low volume (Greiner #784076) 384 wells assay plate. An 1-hr pre-incubation of the compounds with enzyme was included. A His-tagged construct of WRN (AA S2-S1235) was produced and used for the ATPase assay. Maximum inhibition control wells were set up with the addition of only assay buffer, and no inhibition control wells were set up with neat DMSO without test compounds. The reaction was initiated by addition of 5 μL substrate mix (200 μM ultrapure ATP, and 50 nM dsDNA prepared in assay buffer) and incubated at 25° C. for 35 min. A typical Helicase reaction consists of 25 nM forked dsDNA, 100 μM ATP, and 1 nM WRN prepared in assay buffer. The WRN Helicase reaction was quenched by the addition of 5 μL ‘STOP’ solution containing 100 mM EDTA (final EDTA concentration 33.33 mM) prepared in assay buffer. The plates were read on BMG PHERAstar FSX using 540/590 module to measure an increase of fluorescence. Data analysis was carried out using the Genedata software following % of control normalization. Fitting parameters include dose response IC50, Hill slope (n), maximum inhibition (S∞), and minimum inhibition (S0). The reported IC50 values for compounds in this invention are the geometric means of at least 2 independent replicates.

WRN [2] = target: T1, WRN; assay: WRN ATPase activity assay (ADP-Glo); format: biochemical; settings: 1-hr pre-incubation with enzyme; 100 μM ATP, 25 nM forked dsDNA, 1 nM WRN; geometric mean of at least 2 replicates
Procedure: Compounds of the Examples were tested for WRN ATPase activity. WRN ATPase activity catalyzes ATP hydrolysis to produce ADP and phosphate. DNA encoding the target protein, 6×HIS-TEV-WRN-517-945, was produced, cloned and transfected as detailed in Example D. The amount of ADP produced was measured using ADP-Glo™ Kinase Assay kit from Promega Corporation in a Greiner white regular volume 384 wells assay plate (Greiner #781075). Data was normalized to a standard curve generated using various ADP concentrations and the corresponding luminescent signal intensities at each concentration. The assay conditions were optimized for enzyme concentration (WRN), substrate concentrations (ATP & dsDNA), and the linearity of the ATPase reaction, in the following assay buffer: 50 mM Tris-HCl, pH-7.5, 2 mM MgCl2, 50 mM NaCl, 1 mM EGTA, 0.01% P-20, 0.05% BSA, and 2 mM DTT prepared with nuclease free water.
A serial dilution (1:3 scheme) of the compounds were prepared in neat DMSO, with 100 nL of the compounds dispensed in the 384 wells assay plate. An 1-hr pre-incubation of the compounds with enzyme was included. A His-tagged construct of WRN (AA S2-S1235) was produced and used for the ATPase assay. Maximum inhibition control wells were set up with the addition of only assay buffer, and no inhibition control wells were set up with neat DMSO without test compounds. The reaction was initiated by addition of 5 μL substrate mix (200 μM ultrapure ATP, and 50 nM dsDNA prepared in assay buffer) and incubated at 25° C. for 35 min. A forked dsDNA oligomer substrate was prepared by annealing equal amounts of oligo GPat-1 ([BHQ2][…]) and oligo GPat-2 ([…][TAM]) and was used as dsDNA substrate for WRN ATPase assay. A typical ATPase reaction consists of 25 nM forked dsDNA, 100 μM ATP, and 1 nM WRN prepared in assay buffer. The WRN ATPase reaction was stopped by the addition of 5 μL of ADP-Glo Reagent from ADP-Glo™ Kinase Assay kit and incubated for 40 min to deplete the unreacted ATP. Afterwards, 5 μL of Kinase Detection Reagent from the ADP-Glo™ Kinase Assay kit was added and incubated for 1 hr for the development of luminescence signal.
Luminesce signals were measured on BMG PHERAstar FSX using luminescence protocol. Data analysis was carried out using Genedata software following % of control normalization. Fitting parameters include dose response IC50, Hill slope (n), maximum inhibition (S∞), and minimum inhibition (S0). The reported IC50 values for compounds in this invention are the geometric means of at least 2 independent replicates.

T1 sequence (Q14191 2-1235): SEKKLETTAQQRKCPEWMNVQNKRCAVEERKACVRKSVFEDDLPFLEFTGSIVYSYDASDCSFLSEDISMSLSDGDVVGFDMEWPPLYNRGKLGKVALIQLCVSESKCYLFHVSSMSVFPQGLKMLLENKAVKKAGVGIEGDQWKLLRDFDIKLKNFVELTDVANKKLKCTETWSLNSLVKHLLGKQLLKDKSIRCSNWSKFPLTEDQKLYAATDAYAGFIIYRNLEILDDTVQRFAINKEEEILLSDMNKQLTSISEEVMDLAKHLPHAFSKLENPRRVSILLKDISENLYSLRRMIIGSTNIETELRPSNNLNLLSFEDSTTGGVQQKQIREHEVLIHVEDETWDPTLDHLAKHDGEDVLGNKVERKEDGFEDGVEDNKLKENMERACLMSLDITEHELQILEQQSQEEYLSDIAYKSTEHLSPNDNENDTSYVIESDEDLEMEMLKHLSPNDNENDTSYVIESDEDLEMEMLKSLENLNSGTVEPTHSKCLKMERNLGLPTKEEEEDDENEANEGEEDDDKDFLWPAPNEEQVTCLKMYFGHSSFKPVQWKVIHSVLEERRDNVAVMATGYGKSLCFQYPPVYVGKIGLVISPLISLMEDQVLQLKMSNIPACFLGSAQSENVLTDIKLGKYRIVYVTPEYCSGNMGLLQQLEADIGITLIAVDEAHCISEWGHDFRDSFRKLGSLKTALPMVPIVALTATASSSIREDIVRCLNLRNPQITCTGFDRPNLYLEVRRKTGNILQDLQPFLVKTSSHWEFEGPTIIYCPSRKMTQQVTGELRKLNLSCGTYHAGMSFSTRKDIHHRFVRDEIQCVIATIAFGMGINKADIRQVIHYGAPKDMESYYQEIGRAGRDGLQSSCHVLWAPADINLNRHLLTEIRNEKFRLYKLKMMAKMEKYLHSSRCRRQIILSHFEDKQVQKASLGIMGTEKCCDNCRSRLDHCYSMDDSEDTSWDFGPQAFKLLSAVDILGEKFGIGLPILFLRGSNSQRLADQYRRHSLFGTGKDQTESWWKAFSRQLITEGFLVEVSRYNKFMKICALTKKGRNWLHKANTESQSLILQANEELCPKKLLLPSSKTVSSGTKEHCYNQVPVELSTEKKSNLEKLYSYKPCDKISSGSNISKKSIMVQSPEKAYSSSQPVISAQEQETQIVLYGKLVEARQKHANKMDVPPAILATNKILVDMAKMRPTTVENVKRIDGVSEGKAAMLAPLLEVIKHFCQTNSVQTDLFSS

IC50 (WRN [1])	IC50 (WRN [2])	Structure (SMILES)
< 100 nM	< 100 nM	C=CC(=O)Nc1ccccc1-c1c(CC)nc2n(CC(=O)Nc3ccc(F)cc3)c3ccccc3n2c1=O [Example 1, N-(2-(2-Ethyl-10-(2-((4-fluorophenyl)amino)-2-oxoethyl)-4-oxo-4,10-dihydrobenzo[4,5]imidazo[1,2-a]pyrimidin-3-yl)phenyl)acrylamide]
< 100 nM	< 100 nM	C=CC(=O)Nc1ccccc1-c1c(CC)nc2n(CC(=O)Nc3ccccc3)c3ccccc3n2c1=O [Example 2, N-(2-(2-Ethyl-4-oxo-10-(2-oxo-2-(phenylamino)ethyl)-4,10-dihydrobenzo[4,5]imidazo[1,2-a]pyrimidin-3-yl)phenyl)acrylamide]
< 100 nM	< 100 nM	C=CC(=O)Nc1ccccc1-c1c(CC)nc2n(CC(=O)Nc3ccc(C(F)(F)F)cc3)c3ccccc3n2c1=O [Example 3, N-(2-(2-Ethyl-4-oxo-10-(2-oxo-2-((4-(trifluoromethyl)phenyl)amino)ethyl)-4,10-dihydrobenzo[4,5]imidazo[1,2-a]pyrimidin-3-yl)phenyl)acrylamide]
< 100 nM	< 100 nM	C=CC(=O)Nc1ccccc1-c1c(CC)nc2n(CC(=O)Nc3ccc(C(F)(F)F)cc3Cl)c3ccccc3n2c1=O [Example 4, N-(2-(10-(2-((2-Chloro-4-(trifluoromethyl)phenyl)amino)-2-oxoethyl)-2-ethyl-4-oxo-4,10-dihydrobenzo[4,5]imidazo[1,2-a]pyrimidin-3-yl)phenyl)acrylamide]
< 100 nM	< 100 nM	C=CC(=O)Nc1ccccc1-c1c(CC)nc2n(CC(=O)Nc3ccc(CC)cc3)c3ccccc3n2c1=O [Example 5, N-(2-(2-Ethyl-10-(2-((4-ethylphenyl)amino)-2-oxoethyl)-4-oxo-4,10-dihydrobenzo[4,5]imidazo[1,2-a]pyrimidin-3-yl)phenyl)acrylamide]
< 100 nM	< 100 nM	C=CC(=O)Nc1ccccc1-c1c(CC)nc2n(CC(=O)Nc3ccc(F)cc3Cl)c3ccccc3n2c1=O [Example 6, N-(2-(10-(2-((2-Chloro-4-fluorophenyl)amino)-2-oxoethyl)-2-ethyl-4-oxo-4,10-dihydrobenzo[4,5]imidazo[1,2-a]pyrimidin-3-yl)phenyl)acrylamide]
100 to 500 nM	100 to 500 nM	C=CC(=O)Nc1ccccc1-c1c(CC)nc2n(CC(=O)Nc3cccc(C(F)(F)F)c3)c3ccccc3n2c1=O [Example 7, N-(2-(2-Ethyl-4-oxo-10-(2-oxo-2-((3-(trifluoromethyl)phenyl)amino)ethyl)-4,10-dihydrobenzo[4,5]imidazo[1,2-a]pyrimidin-3-yl)phenyl)acrylamide]
< 100 nM	< 100 nM	C=CC(=O)Nc1ccccc1-c1c(CC)nc2n(CC(=O)Nc3ccc(F)c(F)c3)c3ccccc3n2c1=O [Example 8, N-(2-(10-(2-((3,4-Difluorophenyl)amino)-2-oxoethyl)-2-ethyl-4-oxo-4,10-dihydrobenzo[4,5]imidazo[1,2-a]pyrimidin-3-yl)phenyl)acrylamide]
< 100 nM	< 100 nM	C=CC(=O)Nc1ccccc1-c1c(CC)nc2n(CC(=O)Nc3ccc(F)cc3C)c3ccccc3n2c1=O [Example 9, N-(2-(2-Ethyl-10-(2-((4-fluoro-2-methylphenyl)amino)-2-oxoethyl)-4-oxo-4,10-dihydrobenzo[4,5]imidazo[1,2-a]pyrimidin-3-yl)phenyl)acrylamide]
1000 to 5000 nM	1000 to 5000 nM	C=CC(=O)Nc1ccccc1-c1c(CC)nc2n(CC(=O)NC3CCCCC3)c3ccccc3n2c1=O [Example 10, N-(2-(10-(2-(Cyclohexylamino)-2-oxoethyl)-2-ethyl-4-oxo-4,10-dihydrobenzo[4,5]imidazo[1,2-a]pyrimidin-3-yl)phenyl)acrylamide]
< 100 nM	< 100 nM	C=CC(=O)Nc1ccc(C(=O)OC)cc1-c1c(CC)nc2n(CC(=O)Nc3ccc(F)cc3)c3ccccc3n2c1=O [Example 11, Methyl 4-acrylamido-3-(2-ethyl-10-(2-((4-fluorophenyl)amino)-2-oxoethyl)-4-oxo-4,10-dihydrobenzo[4,5]imidazo[1,2-a]pyrimidin-3-yl)benzoate]
100 to 500 nM	100 to 500 nM	C=CC(=O)Nc1ccc(C(=O)NCCO)cc1-c1c(CC)nc2n(CC(=O)Nc3ccc(F)cc3)c3ccccc3n2c1=O [Example 12, 4-Acrylamido-3-(2-ethyl-10-(2-((4-fluorophenyl)amino)-2-oxoethyl)-4-oxo-4,10-dihydrobenzo[4,5]imidazo[1,2-a]pyrimidin-3-yl)-N-(2-hydroxyethyl) benzamide]
100 to 500 nM	100 to 500 nM	C=CC(=O)Nc1ccc(C(=O)NCCOC)cc1-c1c(CC)nc2n(CC(=O)Nc3ccc(F)cc3)c3ccccc3n2c1=O [Example 13, 4-Acrylamido-3-(2-ethyl-10-(2-((4-fluorophenyl)amino)-2-oxoethyl)-4-oxo-4,10-dihydrobenzo[4,5]imidazo[1,2-a]pyrimidin-3-yl)-N-(2-methoxyethyl) benzamide]
100 to 500 nM	100 to 500 nM	C=CC(=O)Nc1ccc(C(=O)N2CC3CC3(O)C2)cc1-c1c(CC)nc2n(CC(=O)Nc3ccc(F)cc3)c3ccccc3n2c1=O (centres unmarked) [Example 14, N-(2-(2-Ethyl-10-(2-((4-fluorophenyl)amino)-2-oxoethyl)-4-oxo-4,10-dihydrobenzo[4,5]imidazo[1,2-a]pyrimidin-3-yl)-4-(1-hydroxy-3-azabicyclo[3.1.0]hexane-3-carbonyl)phenyl) acrylamide]
< 100 nM	< 100 nM	C=CC(=O)Nc1cc(C#N)ccc1-c1c(CC)nc2n(CC(=O)Nc3ccc(C(F)(F)F)cc3)c3ccccc3n2c1=O [Example 15, N-(5-Cyano-2-(2-ethyl-4-oxo-10-(2-oxo-2-((4-(trifluoromethyl)phenyl)amino)ethyl)-4,10-dihydrobenzo[4,5]imidazo[1,2-a]pyrimidin-3-yl)phenyl)acrylamide]
5000 to 20000 nM	1000 to 5000 nM	C=CC(=O)Nc1nn(C)cc1-c1c(CC)nc2n(CC(=O)Nc3ccc(C(F)(F)F)cc3)c3ccccc3n2c1=O [Example 16, N-(4-(2-Ethyl-4-oxo-10-(2-oxo-2-((4-(trifluoromethyl)phenyl)amino)ethyl)-4,10-dihydrobenzo[4,5]imidazo[1,2-a]pyrimidin-3-yl)-1-methyl-1H-pyrazol-3-yl)acrylamide]
